Experimental data taken from patent publication US20110112299A1, “TETRACYCLIC COMPOUND” (KYOWA HAKKO KIRIN CO., LTD., priority 2008, published 2011).

Target: T1, recombinant human glucocorticoid receptor (Homo sapiens, UniProt P04150)
T1 construct: purchased Panvera/Invitrogen P2812 (kit P2893)
T1 sequence (P04150 1-777): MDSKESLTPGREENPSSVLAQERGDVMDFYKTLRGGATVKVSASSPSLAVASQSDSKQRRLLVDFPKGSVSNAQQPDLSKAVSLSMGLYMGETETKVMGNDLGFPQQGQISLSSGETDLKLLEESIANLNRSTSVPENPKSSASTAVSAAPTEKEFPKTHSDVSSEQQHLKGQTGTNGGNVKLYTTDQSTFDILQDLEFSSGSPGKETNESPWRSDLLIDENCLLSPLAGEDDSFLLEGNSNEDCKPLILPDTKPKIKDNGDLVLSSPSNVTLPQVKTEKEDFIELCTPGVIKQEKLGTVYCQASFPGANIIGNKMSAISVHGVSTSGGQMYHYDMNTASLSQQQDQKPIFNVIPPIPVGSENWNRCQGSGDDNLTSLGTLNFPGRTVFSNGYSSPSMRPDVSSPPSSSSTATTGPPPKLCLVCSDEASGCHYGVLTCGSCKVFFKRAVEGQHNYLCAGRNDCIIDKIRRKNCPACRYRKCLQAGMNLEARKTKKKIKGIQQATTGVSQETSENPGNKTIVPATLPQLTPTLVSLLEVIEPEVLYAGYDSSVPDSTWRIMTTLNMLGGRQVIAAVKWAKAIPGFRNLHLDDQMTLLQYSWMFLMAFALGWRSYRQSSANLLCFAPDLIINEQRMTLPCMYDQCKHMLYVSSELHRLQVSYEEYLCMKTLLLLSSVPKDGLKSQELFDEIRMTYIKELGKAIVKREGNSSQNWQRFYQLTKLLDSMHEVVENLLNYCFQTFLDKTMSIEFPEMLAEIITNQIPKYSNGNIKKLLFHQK
Assay: Human glucocorticoid receptor assay (fluorescence polarization, Test Example 1)
Format: binding
Description: In this assay, a fluorescence polarization assay kit (Panvera/Invitrogen, product number: P2893) was used. The recombinant human glucocorticoid receptor (product number: P2812), the Fluoromore (trademark)-labeled dexamethasone (GS Green, product number: P2813), the stabilizing peptide solution (product number: P2815), and the basic buffer solution (product number: P2814) which were used in the assay kit had been stored at −80° C. until used. A buffer solution for the assay was prepared by adding the basic buffer solution (10 fold dilution), the stabilizing peptide solution (10 fold dilution), and 1 mol/L DTT (1000 fold dilution to give a final concentration of 1 mmol/L).
The assay was performed as follows. […] The fluorescence polarization value of each well was measured using a plate reader (PerkinElmer, Fusion or Envision). […] To a positive control group, dexamethasone was added so as to give a final concentration of 1 μmol/L. The glucocorticoid receptor binding rate (%) was calculated by the following formula.
Glucocorticoid receptor binding rate (%)=100×[1-(fluorescence polarization value of test compound solution−fluorescence polarization value of positive control solution)/(fluorescence polarization value of negative control solution−fluorescence polarization value of positive control solution)]

CC/C(=C1\c2cc3cnn(C)c3cc2COc2ccccc21)c1cccc(NS(C)(=O)=O)c1 [Compound 2, (Z)-5-{1-[3-(methanesulfonamide)phenyl]propylidene}-1-methyl-5,11-dihydrobenzo[6,7]oxepino[4,3-f]indazole] was tested, and the “inhibitory activity (glucocorticoid receptor binding rate)” value (at a concentration of 100 nmol/L or higher) was no less than 80% and the “selectivity for human glucocorticoid receptor over progesterone receptor” value (from the results of Test Examples 1 and 2) was “selective inhibitory activity to human glucocorticoid receptors”.
